Some test systems named below: A549; DU-145; HOP-62; HT-29; IGROV-1; MCF7; MDA-MB-231; NCI-H522; NCI/ADR-RES; OVCAR-5; OVCAR-8; SF-539; SK-MEL-28; SK-MEL-5; SK-OV-3; SNB-19; SR; SW-620; U-251; UACC-257.
Common to all, as to assay: NCI-60 cell line screen, 48 h

The results in this text go back to ChEMBL document CHEMBL1201862, “PubChem BioAssay data set” (2004).

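Five concentrations, 48 hours, 96-well plates. GI50 = concentration required for 50% inhibition of growth.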 Calls of active or inactive are those of the source. No stated cut-off is given here; in the data, active = GI50 up to about 1.1 µM and inactive = higher. Where a SMILES comes first, the peptide text is derived from it. [ ]: non-standard residue; d: D form. The star is where a group is joined. Octanoyl = CCCCCCCC(=O)*; Aib = CC(C)(N)C(=O)O; tBu = CC(C)(C)*

Regarding `CCOC(=O)c1[nH]cc(C)c1-c1c[nH]c2ccccc12`, the GI50 with A549 is 28.8 µM (inactive); in the test on DU-145 it was 45 µM (inactive); in the test on HOP-62 it was 35.3 µM (inactive); with HT-29, 21.6 µM (inactive); in the test with IGROV-1, 33.2 µM (inactive); in the test with MCF7 it was 22.3 µM (inactive). For the same compound, the GI50 in the test on MDA-MB-231 was 9.57 µM (inactive); in the test on NCI-H522, 24.6 µM (inactive); with NCI/ADR-RES, 21.4 µM (inactive); in the test with OVCAR-5, 39.7 µM (inactive); with OVCAR-8 it was 27.1 µM (inactive); in the test with SF-539, 22.8 µM (inactive). Moreover, the GI50 in the test with SK-MEL-28 was 39.4 µM (inactive); in the test on SK-MEL-5, 13.8 µM (inactive); in the test with SK-OV-3 it was 32.3 µM (inactive); with SNB-19 it was 24.9 µM (inactive); in the test on SR it was 1.82 µM (inactive); in the test on SW-620, 27.9 µM (inactive). For the same compound, the GI50 in the test with U-251 was 19.7 µM (inactive); in the test on UACC-257, 26.2 µM (inactive).

Turning to `O=C1CS(=O)(=O)C(c2cccc(Oc3ccccc3)c2)N1c1ccc(Cl)cc1` (stereo not given), the GI50 with A549 is 30.8 µM (inactive); with DU-145 it was 67.3 µM (inactive); in the test on HOP-62, 46.7 µM (inactive); in the test with HT-29, 25 µM (inactive); with IGROV-1, 14.3 µM (inactive); in the test on MCF7, 13.8 µM (inactive). The GI50 is 31.4 µM (inactive) in the test on MDA-MB-231; 16.8 µM (inactive) in the test on NCI-H522; 18.9 µM (inactive) with NCI/ADR-RES; 25.1 µM (inactive) in the test with OVCAR-5; 18.8 µM (inactive) in the test with OVCAR-8; 19.5 µM (inactive) in the test with SF-539. Besides, the GI50 was 32.4 µM (inactive) in the test on SK-MEL-28; 12.3 µM (inactive) with SK-MEL-5; 49 µM (inactive) in the test on SK-OV-3; 46.7 µM (inactive) in the test on SNB-19; 10.6 µM (inactive) in the test with SR; 30 µM (inactive) with SW-620. The GI50 was 19.1 µM (inactive) with U-251 and 14.8 µM (inactive) in the test on UACC-257.

For `CCCCC(=O)OC[n+]1ccc2c(C)c3[nH]c4ccccc4c3c(C)c2c1`, the GI50 is 0.267 µM (active) in the test on A549; 1.04 µM (active) in the test with DU-145; 0.537 µM (active) in the test on HOP-62; 0.46 µM (active) in the test with HT-29; 0.502 µM (active) with IGROV-1; 0.18 µM (active) in the test on MCF7. Moreover, the GI50 was 0.174 µM (active) in the test on MDA-MB-231; 0.773 µM (active) in the test with NCI-H522; 0.526 µM (active) in the test with NCI/ADR-RES; 0.525 µM (active) with OVCAR-5; 0.385 µM (active) with OVCAR-8; 0.526 µM (active) with SF-539. Also, the GI50 in the test on SK-MEL-28 was 1.32 µM (inactive); in the test on SK-MEL-5, 1.39 µM (inactive); in the test on SK-OV-3, 0.74 µM (active); in the test on SNB-19, 0.466 µM (active); in the test with SR, 0.0895 µM (active); with SW-620, 0.359 µM (active). The GI50 with U-251 was 0.574 µM (active); in the test on UACC-257, 1.43 µM (inactive).

Turning to `CC(C)C1=C2CCC3(C)C(CCC4C5C6OCC5(CCC6(C)C)CCC43C)C2(C)CC1` (stereo not given), the GI50 was 17.3 µM (inactive) in the test with A549; 20.2 µM (inactive) in the test on DU-145; 18.1 µM (inactive) in the test on HOP-62; 17.7 µM (inactive) with HT-29; 13.1 µM (inactive) with IGROV-1; 23.4 µM (inactive) with MCF7. Besides, the GI50 in the test with MDA-MB-231 is 20 µM (inactive); with NCI-H522 it was 18.8 µM (inactive); with NCI/ADR-RES, 18.9 µM (inactive); in the test with OVCAR-5, 33 µM (inactive); in the test on OVCAR-8 it was 17.7 µM (inactive); with SF-539, 16.9 µM (inactive). Also, the GI50 in the test on SK-MEL-28 was 17.8 µM (inactive); in the test on SK-MEL-5, 21.8 µM (inactive); with SK-OV-3, 58.1 µM (inactive); in the test on SNB-19, 29.1 µM (inactive); with SR, 11.3 µM (inactive); in the test on SW-620, 22.5 µM (inactive). In addition, the GI50 is 19.1 µM (inactive) in the test on U-251 and 18.1 µM (inactive) with UACC-257.

`CCCCCCCC(=O)NC(C)(C)C(=O)NC(COC(C)(C)C)C(=O)NC(CC(C)C)C(=O)NC(C)(C)C(=O)NC(COC(C)(C)C)C(=O)NC(COC(C)(C)C)C(=O)NC(CC(C)C)C(=O)NC(C)(C)C(=O)NC(COC(C)(C)C)C(=O)NC(C(=O)NC(CC(C)C)C(=O)OC)C(C)CC` (stereo not given) (Octanoyl-[Aib]S(tBu)L[Aib]S(tBu)S(tBu)L[Aib]S(tBu)IL-OMe; configuration not given here): the GI50 is 8.18 µM (inactive) in the test on A549; 6.9 µM (inactive) in the test on DU-145; 9.31 µM (inactive) in the test on HOP-62; 4.94 µM (inactive) with HT-29; 5.7 µM (inactive) with IGROV-1; 5.98 µM (inactive) in the test with MCF7. Moreover, the GI50 with MDA-MB-231 was 5.86 µM (inactive); in the test with NCI-H522, 6.41 µM (inactive); in the test on NCI/ADR-RES it was > 25 µM (inactive); with OVCAR-5 it was 6.5 µM (inactive); in the test with OVCAR-8, 8.65 µM (inactive); with SF-539 it was 8.49 µM (inactive). The GI50 with SK-MEL-28 was 14.4 µM (inactive); in the test on SK-MEL-5, 6.22 µM (inactive); in the test with SK-OV-3, 11.8 µM (inactive); in the test on SNB-19, 7.55 µM (inactive); in the test on SR, 5.62 µM (inactive); in the test with SW-620, 8.95 µM (inactive). Also, the GI50 in the test on U-251 is 5.24 µM (inactive); with UACC-257 it was 8.81 µM (inactive).
